# Reference: US10722484B2, “Methods of cancer treatment” (K-Gen, Inc., priority 2016, dated 2020)
# Like-named read-outs stand apart in the source and are kept apart here.
# Experiments:
# [1] = tested on: Namalwa (Burkitt's lymphoma); assay: Combination viability/proliferation assays; conditions: K101A (0.1 μM) or K102 (0.001 μM)
# Description: (§4) Briefly, cells at density of 1,000-10,000 cells/well in 96-well plates or 200-1600 cells/well in 384-well plates were seeded and incubated at 37° C. for 24 hours before addition of compounds. A series of 9 different concentrations of compound stocks (500×) were prepared by 3-fold serial dilutions in DMSO. […] After 96 hours of incubation, 35 μL or 50 μL of CellTiter Glo reagent (Promega) was added to each well and luminescence was measured after 10 minutes using EnVision (PerkinElmer). Luminescence from cells treated with DMSO alone was set as Max and % of inhibition was calculated as follows: Inhibition %=(Max-Sample value)/Max*100. Data were analyzed using XLfit software (ID Business Solutions Ltd.) or GraphPad software and IC50, relative IC50, and % of top inhibition were calculated.
# Various drugs or compounds (Table 10) were screened and assayed in 384-well plates as 9-point 3-fold dilution series alone and in combination with 2-3 doses of the specified PKC activator compounds (e.g., K101A, K101E, and K102). The top concentration for the tested PKC activator compound was set at roughly the IC50 when the same testing compound was used as a single agent assayed in the same cell line. The next dose was either 3-fold or 10-fold dilution from the top concentration. […]
# [2] = tested on: A549 lung cancer cell line; assay: Combination viability/proliferation assays (384-well IC50 ratio, 96-well MacSynergy II); assay type: cell-based; conditions: for Combination in A549: K101E (synergism/antagonism): agent assayed in combination with K101E
# MiaPaCa-2 = assay: Combination viability/proliferation assays; assay type: cell-based
# Description: (§1) A 96-well MacSynergy II format for combination test was also used. […] The analysis was done with the SQRT(Data) scale and the four parameter Hill curve was fitted using XLfit5.1 (the MacSynergy II Excel Spreadsheet) for the inhibition data. Synergy (positive number) or Antagonism (negative number) volumes were calculated. […] Three-dimensional MacSynergy II graphs were generated where positive values indicated synergism and negative values indicated antagonism.
# Panc2.13 = assay: Combination viability/proliferation assays; assay type: cell-based; conditions: for effect in combination with K101A: Panc2.13, K101A at 1 μM or at 0.67 μM
# Description: as §1
# [3] = tested on: MV-4-11 human myelomonocytic leukemia; assay: Combination viability/proliferation assays; conditions: K101A (0.1 μM) or K102 (0.01 μM)
# Description: as §4
# (§5) The top concentration for the tested PKC activator compound was set at roughly the IC50 when the same testing compound was used as a single agent assayed in the same cell line. The next dose was either 3-fold or 10-fold dilution from the top concentration.
# [4] = tested on: HL-60 human promyelocytic leukemia cells; assay: Combination viability/proliferation assays
# Description: as §4, §5
# [5] = tested on: Mino (Mantle cell lymphoma); assay: Combination viability/proliferation assays; conditions: Mino; K101A (0.1 μM) or K102 (0.001 μM); especially below 0.1 μM cytarabine
# Description: as §4
# Various drugs or compounds (Table 10) were screened and assayed in 384-well plates as 9-point 3-fold dilution series alone and in combination with 2-3 doses of the specified PKC activator compounds (e.g., K101A, K101E, and K102). The top concentration for the tested PKC activator compound was set at roughly the IC50 when the same testing compound was used as a single agent assayed in the same cell line. The next dose was either 3-fold or 10-fold dilution from the top concentration.
# The PKC activating agents (e.g., K101A, K101E, and K102) in combination with other chemotherapeutic agents, including standard chemotherapies and certain chemotherapeutic agents targeting certain cell signaling pathways, were also examined on cancer cells other than lung cancer cells.
# [6] = tested on: THP-1 human acute monocytic leukemia cells; assay: Combination viability/proliferation assays; conditions: K101A (0.3 μM) and K102 (0.005 μM)
# Description: as §4, §5
# Pan2.03 = assay: Proliferation assay (CellTiter Glo); assay type: cell-based
# Description: (§2) The dose range for most compounds was 4.6 nM-30 μM. The dose ranges for some compounds were adjusted downward to 0.46 nM-3 μM or 0.08 nM-0.5 μM or 0.03 nM-0.2 μM. […] The results are shown in Tables 3-6 for pancreatic cancer, lung cancer, colon/gastric cancer, and leukemia.
# AsPC-1 = assay: Proliferation assay (CellTiter Glo); assay type: cell-based
# Description: as §2
# Pan2.13 = assay: Proliferation assay (CellTiter Glo); assay type: cell-based
# Description: as §2
# CCRF-CEM = assay: Proliferation assay (CellTiter Glo); assay type: cell-based; conditions: CCRF-CEM
# Description: as §2
# [7] = tested on: pancreatic, lung, colon and leukemia cancer cell lines; assay: Proliferation assay, summary over the panel of cancer cell lines; assay type: cell-based
# Description: PKC activator compounds were tested in a panel of K-RAS mutant pancreatic, lung, and colon cancer cell lines, as well as a number of leukemia cell lines having either mutant K-RAS or N-RAS.
# as §2
# BxPC-3 = assay: Proliferation assay (CellTiter Glo); assay type: cell-based; conditions: BxPC-3 (RAS WT); 96 hours
# Description: as §2
# (§3) Other cancer cell lines having wild-type K-RAS status and K-RAS mutation at G12 were also screened using the PKC activator compounds. […] K104 was tested in a range of 0.03 nM-0.2 μM. […] The dose ranges were adjusted downward to 0.46 nM-3 μM for K102 and 0.08 nM-0.5 μM for K103 for some cell lines. The results of the screening of cancer cells lines with wild-type K-RAS status and K-RAS mutations at the G12 positions are presented in Table 7.
# HT29 = assay: Proliferation assay (CellTiter Glo); assay type: cell-based; conditions: HT29 (RAS WT); 96 hours
# Description: as §2, §3
# Colo205 = assay: Proliferation assay (CellTiter Glo); assay type: cell-based; conditions: Colo205 (RAS WT); 96 hours
# Description: as §2, §3
# H838 = assay: Proliferation assay (CellTiter Glo); assay type: cell-based; conditions: H838 (RAS WT); 96 hours
# Description: as §2, §3
# H1915 = assay: Proliferation assay (CellTiter Glo); assay type: cell-based; conditions: H1915 (RAS WT); 96 hours
# Description: as §2, §3
# Panc1 = assay: Combination viability/proliferation assays; assay type: cell-based; conditions: for Combination effect, Panel: K102: agent in combination with K102
# Description: as §1
# [8] = tested on: colon cancer cell line Colo205; assay: MacSynergy combination experiments; assay type: cell-based
# Description: as §1
# [9] = A549, in combination with 0.005 μM K101A, NC: no change
# [10] = A549, in combination with 0.05 μM K101A, NC: no change
# [11] = A549, in combination with 0.5 μM K101A, ratio >2 synergistic, <0.5 antagonistic, NC: no change
# [12] = PKC activator compounds (K101A, K101E, K102)
# [13] = agent assayed in combination with K101A, A549, * 2-3 concentrations, # full concentration ranges
# [14] = agent assayed in combination with K102, A549, * 2-3 concentrations, # full concentration ranges
structure (smiles),measurement,setting,value
CC[C@H](Nc1ncnc2[nH]cnc12)c1nc2cccc(F)c2c(=O)n1-c1ccccc1 [Idelalisib],effect in combination with K101A or K102,[1],synergistic anti-proliferative effect
same,increase of inhibition,[1]; roughly 0.03-3 μM idelalisib/CAL-101,at least 20%
same,Ratio ([…] DMSO IC50/combination IC50),"[2]; A549, in combination with 0.0002 μM K102, NC: no change",0.81
same,Ratio ([…] DMSO IC50/combination IC50),"[2]; A549, in combination with 0.002 μM K102, NC: no change",1.76
same,Ratio ([…] DMSO IC50/combination IC50),[2]; [9],1.04
same,Ratio ([…] DMSO IC50/combination IC50),"[2]; A549, in combination with 0.02 μM K102, NC: no change",3.55
same,Ratio ([…] DMSO IC50/combination IC50),[2]; [10],1.89
same,Ratio ([…] DMSO IC50/combination IC50),[2]; [11],5.05
same,effect in combination with the PKC activator compounds in inhibiting the growth of A549 cells,[2]; [12],strong synergy
same,Combination in A549: K101A (synergism/antagonism),[2]; [13],Synergism
same,Combination in A549: K101E (synergism/antagonism),[2]; A549,Synergism
same,Combination in A549: K102 (synergism/antagonism),[2]; [14],Synergism
"O=c1nc(-c2ccc(C(F)(F)F)cc2)[nH]c2c1CSCC2 [XAV-939, 2-[4-(trifluoromethyl)phenyl]-1,5,7,8-tetrahydrothiopyrano[4,3-d]pyrimidin-4-one]",effect in combination with low doses of K101A or K102,MiaPaCa-2; K101A (0.166 and 1 μM) or K102 (0.0017 and 0.005 μM),additive effects
same,effect in combination with K101A,Panc2.13,strong synergy
same,Ratio ([…] DMSO IC50/combination IC50),"[2]; A549, in combination with 0.013 μM K102",>2
same,Ratio ([…] DMSO IC50/combination IC50),"[2]; A549, in combination with 0.04 μM K102",>2
same,Ratio ([…] DMSO IC50/combination IC50),"[2]; A549, in combination with 0.33 uM K101A",2.55
same,Ratio ([…] DMSO IC50/combination IC50),"[2]; A549, in combination with 1 uM K101A",4.23
same,effect in combination with K101A or K102 in inhibiting the growth of A549 cells,[2]; K101A or K102,strong synergistic effect
same,Combination in A549: K101A (synergism/antagonism),[2]; [13],Synergism
same,Combination in A549: K102 (synergism/antagonism),[2]; [14],Synergism
"CC1=C(/C=C/C(C)=C/C=C/C(C)=C/C(=O)O)C(C)(C)CCC1 [ATRA, all-trans-retinoic acid]",shift of the inhibition curve up,[3],5-20%
same,effect in combination with K101A and K102,[4],strong synergy
same,shift of the inhibition curve up,"[4]; addition of K101A (0.3 μM) or K102 (0.005 μM), after subtracting inhibition by K101A or K102 alone",5-40%
Nc1ccn([C@@H]2O[C@H](CO)[C@@H](O)[C@@H]2O)c(=O)n1 [Cytarabine],effect in combination with K101A or K102,[5],synergistic anti-proliferative effect
same,effect in combination with K101A and K102,[6],synergy
same,effect in combination with K101A and K102,[4],strong synergy
same,shift of the inhibition curve to the left,[4]; in combination with K101A (0.3 μM),half-log
same,shift of the inhibition curve to the left,[4]; in combination with K102 (0.005 μM),full-log
"CCC/C=C/C=C/C(=O)O[C@H]1/C(=C/C(=O)OC)C[C@H]2C[C@H]([C@@H](C)O)OC(=O)C[C@H](O)C[C@@H]3C[C@H](OC(C)=O)C(C)(C)[C@](O)(C[C@@H]4C/C(=C/C(=O)OC)C[C@H](/C=C/C(C)(C)[C@]1(O)O2)O4)O3 [Compound K104, Bryostatin 1]",EC50,"Pan2.03; 96 h, read-out: Ab EC50",> 200 nM
same,Top Inhibition %,"Pan2.03; Pan2.03, % of top inhibition, 96 hours",0.0%
same,Top Inhibition %,"AsPC-1; AsPC-1, % of top inhibition, 96 hours",4.2%
same,EC50,"AsPC-1; Homo sapiens, ASPC1, 96 h, read-out: Ab EC50",> 200 nM
same,EC50,"Pan2.13; 96 h, read-out: Ab EC50",> 200 nM
same,Top Inhibition %,"Pan2.13; Pan2.13, % of top inhibition, 96 hours",32.2%
same,Top Inhibition %,"CCRF-CEM; % of top inhibition, 96 hours",6.0%
same,EC50,"CCRF-CEM; Homo sapiens, 96 h, read-out: Ab EC50",> 200 nM
same,activity in the proliferation assay / cancer cell lines,[7],much lower activity
same,potency in proliferation inhibition relative to prostratin,[7]; comparison with prostratin,less potent
same,Top Inhibition %,BxPC-3,3.99%
same,Top Inhibition %,HT29,4.3%
same,Top Inhibition %,Colo205,49.4%
same,Top Inhibition %,H838,20.0%
same,Top Inhibition %,H1915,25.1%
N.N.[Cl][Pt][Cl] [Cisplatin],effect in combination with K101A,Panc2.13,strong synergy
same,"Combination effect, Panc2.13: K101A",Panc2.13; agent in combination with K101A,Synergism
same,effect at highest concentrations of combination agents,"Panc1; Panc1, with K101A or K102",Slight antagonism
same,"Combination effect, Panel: K102",Panc1,None
same,"Combination effect, Panel: K102",Panc1; listed as cisplatin,not
same,dose range for the strongest synergy,"[2]; A549, cisplatin combined with PKC activator compounds (FIG. 6A)",0.625 to 2.5 µM
same,Ratio ([…] DMSO IC50/combination IC50),[2]; [9],0.53
same,Ratio ([…] DMSO IC50/combination IC50),"[2]; A549, in combination with 0.04 μM K102 (footnote, Cisplatin)",2.61
same,Ratio ([…] DMSO IC50/combination IC50),[2]; [10],0.86
same,Ratio ([…] DMSO IC50/combination IC50),"[2]; A549, in combination with 0.13 μM K102 (footnote, Cisplatin)",2.52
same,Ratio ([…] DMSO IC50/combination IC50),[2]; [11],2.68
same,Ratio ([…] DMSO IC50/combination IC50),"[2]; A549, in combination with 1 μM K101E (footnote, Cisplatin)",1.37
same,Ratio ([…] DMSO IC50/combination IC50),"[2]; A549, in combination with 3 μM K101E (footnote, Cisplatin)",1.75
same,synergy at cisplatin dose levels higher than […],"[2]; A549, with PKC activator compounds",minimal synergy
same,effect in combination with the PKC activator compounds in inhibiting the growth of A549 cells,[2]; [12],strong synergistic effect
same,Combination in A549: K101A (synergism/antagonism),[2]; [13],Synergism (strong)
same,Combination in A549: K101E (synergism/antagonism),[2]; A549,None
same,Combination in A549: K102 (synergism/antagonism),[2]; [14],Synergism (strong)
same,synergy volume (MacSynergy),"[8]; Colo205, in combination with K101A (column not headed)",49
same,synergy volume (MacSynergy),"[8]; Colo205, in combination with K102 (column not headed)",41
CS(=O)(=O)c1ccc(C(=O)Nc2ccc(Cl)c(-c3ccccn3)c2)c(Cl)c1 [Vismodegib],inhibition of proliferation by the agent alone,MiaPaCa-2; alone at 10 μM,did not inhibit
same,effect in combination with K101A or K102 (synergy),MiaPaCa-2; at 1 μM,not
same,effect in combination with K101A or K102,MiaPaCa-2; at 10 μM,synergy
same,Combination in A549: K101A (synergism/antagonism),[2],Synergism
same,Combination in A549: K102 (synergism/antagonism),[2],Synergism
same,effect in combination with the PKC activator compounds in inhibiting the growth of A549 cells,[2],strong synergy
same,inhibition of cell proliferation by the agent alone,[2],did not inhibit
